Assay results from the CheMixHub drug solubility set.

Experiment: xn = mol fraction of the nth substance listed, in the solute-free solvent

CC(=O)OC(OC(C)=O)c1ccc([N+](=O)[O-])o1 + C1CCOC1 + CC#N
solubility (g/100 g solution)
Settings | 278.15 K | 283.15 K | 288.15 K | 293.15 K | 298.15 K | 303.15 K | 308.15 K | 313.15 K | 318.15 K | 323.15 K
x2 = 0.1463 | 5.45 | 7.32 | 9.5 | 12.1 | 15 | 18.6 | 22.7 | 27.8 | 33.5 | 40
x2 = 0.2961 | 9.28 | 11.7 | 14.9 | 18.5 | 23.1 | 28.4 | 34.3 | 40.7 | 47.5 | 54.4
x2 = 0.4354 | 12.3 | 15.2 | 19.6 | 24.6 | 29.7 | 35.9 | 42.6 | 49.4 | 56 | 62.3
x2 = 0.5816 | 14.6 | 17.7 | 23 | 28.6 | 34.3 | 40.8 | 47.9 | 54.4 | 61 | 67.2
x2 = 0.7445 | 17.2 | 21.4 | 26.5 | 32.5 | 38.5 | 45.1 | 51.9 | 58.3 | 64.6 | 70.5
x2 = 0.8896 | 23.6 | 28 | 33.2 | 39.3 | 45.3 | 51.9 | 57.8 | 63.6 | 68.8 | 73.9

O=C(O)c1ccc(-n2nc(-c3ccccc3O)nc2-c2ccccc2O)cc1 + CO + CC#N
298.15 K
Settings | solubility (g/100 g solution)
x2 = 0.1246 | 4.33
x2 = 0.2426 | 7.73
x2 = 0.3544 | 11.2
x2 = 0.4606 | 14.2
x2 = 0.5616 | 16.4
x2 = 0.6577 | 17.6
x2 = 0.7493 | 18
x2 = 0.8367 | 17.2
x2 = 0.9202 | 15.3

CC(C)Oc1ccc2c(=O)c(-c3ccccc3)coc2c1 + CN(C)C=O + CCO
solubility (g/100 g solution)
Settings | 278.15 K | 283.15 K | 288.15 K | 293.15 K | 298.15 K | 303.15 K | 308.15 K | 313.15 K | 318.15 K | 323.15 K
x2 = 0.1358 | 1.29 | 1.64 | 2.07 | 2.55 | 3.28 | 4.15 | 5.33 | 6.87 | 8.61 | 11
x2 = 0.2956 | 2.42 | 3 | 3.68 | 4.58 | 5.6 | 6.95 | 8.67 | 10.9 | 13.3 | 16.5
x2 = 0.4859 | 3.8 | 4.83 | 5.92 | 7.22 | 8.72 | 10.4 | 12.9 | 15.3 | 18.8 | 22.7
x2 = 0.716 | 5.06 | 6.49 | 7.97 | 9.74 | 11.7 | 14.2 | 17.1 | 20.4 | 24 | 28.5

Cc1nc(C)c(C)nc1C + CCCCO + CC#N
solubility (g/100 g solution)
Settings | 273.15 K | 278.15 K | 283.15 K | 288.15 K | 293.15 K | 298.15 K | 303.15 K | 308.15 K | 313.15 K
x2 = 0.1 | 14 | 16.4 | 19.4 | 21.5 | 27.1 | 29.5 | 36.1 | 39.3 | 44.2
x2 = 0.2 | 18.3 | 21 | 23.4 | 27.1 | 31.6 | 34.6 | 39.8 | 43.8 | 48.2
x2 = 0.3 | 21.2 | 24.6 | 26.9 | 30.9 | 35.3 | 38.2 | 42.8 | 46.6 | 50.5
x2 = 0.4 | 22.8 | 25.9 | 28.7 | 33 | 37.8 | 40.3 | 44.8 | 48.5 | 52.8
x2 = 0.5 | 23.7 | 26.6 | 30.4 | 34 | 39.2 | 41.5 | 45.7 | 49.3 | 53.6
x2 = 0.6 | 24.5 | 26.1 | 30.6 | 34.2 | 39.4 | 41.6 | 45.7 | 50 | 53.9
x2 = 0.7 | 24.3 | 25.7 | 30.1 | 33.6 | 39.3 | 41.5 | 44.8 | 50.1 | 53.6
x2 = 0.8 | 23.5 | 24.9 | 29.4 | 33 | 38.4 | 41 | 43.8 | 49.6 | 53
x2 = 0.9 | 21.8 | 23.6 | 27.9 | 30.6 | 36.3 | 39.2 | 41.8 | 47.9 | 51.3

Cc1nc(C)c(C)nc1C + CO + CC#N
solubility (g/100 g solution)
Settings | 273.15 K | 278.15 K | 283.15 K | 288.15 K | 293.15 K | 298.15 K | 303.15 K | 308.15 K | 313.15 K
x2 = 0.1 | 12.7 | 15 | 18.1 | 21.4 | 25.1 | 28.9 | 33.9 | 37.6 | 44.6
x2 = 0.2 | 17.3 | 20.5 | 23.4 | 26.7 | 30.8 | 34.9 | 40.1 | 43.5 | 50.5
x2 = 0.3 | 21.2 | 24.5 | 28.2 | 31.8 | 36.5 | 40.2 | 46 | 49.2 | 55.7
x2 = 0.4 | 25.6 | 28.9 | 32.5 | 36.4 | 41 | 44.3 | 50 | 53.8 | 60.4
x2 = 0.5 | 28.6 | 32 | 36.6 | 39.9 | 45.1 | 48.2 | 53.4 | 57.3 | 63.5
x2 = 0.6 | 31.3 | 34.5 | 39.2 | 42.7 | 47.6 | 51.5 | 56.2 | 60.5 | 67.4
x2 = 0.7 | 33.6 | 36.1 | 40.8 | 44.6 | 49.4 | 53.8 | 59 | 63.1 | 70
x2 = 0.8 | 34.6 | 37.3 | 42.2 | 45.7 | 50.8 | 54.8 | 61.3 | 64.9 | 71.2
x2 = 0.9 | 35 | 37.6 | 42.7 | 45.6 | 51 | 54.9 | 61.9 | 65.3 | 70.7

Cl.c1ccc2c(CC3=NCCN3)cccc2c1 + CO + CC(C)O
solubility (g/100 g solution)
Settings | 278.15 K | 283.15 K | 288.15 K | 293.15 K | 298.15 K | 303.15 K | 308.15 K | 313.15 K | 318.15 K | 323.15 K
x2 = 0.1724 | 0.41 | 0.484 | 0.577 | 0.695 | 0.819 | 1.01 | 1.16 | 1.42 | 1.62 | 1.85
x2 = 0.3192 | 0.793 | 0.94 | 1.05 | 1.29 | 1.46 | 1.74 | 2.05 | 2.38 | 2.74 | 3.14
x2 = 0.4456 | 1.3 | 1.58 | 1.8 | 2.14 | 2.45 | 2.88 | 3.31 | 3.94 | 4.53 | 5.08
x2 = 0.5556 | 1.91 | 2.41 | 2.82 | 3.29 | 3.8 | 4.3 | 5.07 | 6.02 | 6.76 | 7.78
x2 = 0.6522 | 2.34 | 2.72 | 3.12 | 3.71 | 4.22 | 4.92 | 5.63 | 6.51 | 7.33 | 8.47
x2 = 0.7377 | 2.88 | 3.52 | 4.25 | 5.06 | 5.99 | 6.93 | 7.8 | 8.95 | 10.2 | 11.5
x2 = 0.814 | 3.62 | 4.51 | 5.34 | 6.58 | 7.66 | 8.91 | 10.4 | 11.8 | 13.3 | 14.9
x2 = 0.8823 | 4.46 | 5.61 | 6.67 | 8.06 | 9.39 | 11 | 12.7 | 14.7 | 16.4 | 18.4
x2 = 0.944 | 5.43 | 6.55 | 7.62 | 9.25 | 10.7 | 12.9 | 15 | 17.3 | 19.4 | 21.8

O=CC(O)C(O)C(O)CO (stereo unspecified) + CCO + CCCCCC
solubility (g/100 g solution)
Settings | x2 = 0.1 | x2 = 0.2 | x2 = 0.3 | x2 = 0.4 | x2 = 0.5 | x2 = 0.6 | x2 = 0.7 | x2 = 0.8 | x2 = 0.9
283.15 K | 0.0708 | 0.0912 | 0.139 | 0.18 | 0.281 | 0.514 | 0.692 | 1.16 | 1.73
293.15 K | 0.0738 | 0.111 | 0.171 | 0.268 | 0.425 | 0.715 | 1.07 | 1.56 | 2.52
303.15 K | 0.0959 | 0.119 | 0.186 | 0.375 | 0.676 | 1.1 | 1.5 | 2.39 | 4.09
313.15 K | 0.117 | 0.179 | 0.269 | 0.599 | 0.925 | 1.8 | 2.44 | 4.02 | 6.9
323.15 K | 0.147 | 0.234 | 0.317 | 0.98 | 1.54 | 2.72 | 3.96 | 6.76 | 12.3
